Results published in article doi:10.1101/2024.08.12.607575v1 (bioRxiv, 2024).
Bridge positions count the residues as written; N and C are the ends. Peptide text beside a SMILES is read from it.

Assays:
human recombinant CD206 = molecular target: T1, human recombinant CD206 (Homo sapiens, UniProt P22897); test: Quartz Crystal Microbalance; format: binding; settings: QCM, PAH/CD206 multilayer
T1 sequence (P22897 19-1456): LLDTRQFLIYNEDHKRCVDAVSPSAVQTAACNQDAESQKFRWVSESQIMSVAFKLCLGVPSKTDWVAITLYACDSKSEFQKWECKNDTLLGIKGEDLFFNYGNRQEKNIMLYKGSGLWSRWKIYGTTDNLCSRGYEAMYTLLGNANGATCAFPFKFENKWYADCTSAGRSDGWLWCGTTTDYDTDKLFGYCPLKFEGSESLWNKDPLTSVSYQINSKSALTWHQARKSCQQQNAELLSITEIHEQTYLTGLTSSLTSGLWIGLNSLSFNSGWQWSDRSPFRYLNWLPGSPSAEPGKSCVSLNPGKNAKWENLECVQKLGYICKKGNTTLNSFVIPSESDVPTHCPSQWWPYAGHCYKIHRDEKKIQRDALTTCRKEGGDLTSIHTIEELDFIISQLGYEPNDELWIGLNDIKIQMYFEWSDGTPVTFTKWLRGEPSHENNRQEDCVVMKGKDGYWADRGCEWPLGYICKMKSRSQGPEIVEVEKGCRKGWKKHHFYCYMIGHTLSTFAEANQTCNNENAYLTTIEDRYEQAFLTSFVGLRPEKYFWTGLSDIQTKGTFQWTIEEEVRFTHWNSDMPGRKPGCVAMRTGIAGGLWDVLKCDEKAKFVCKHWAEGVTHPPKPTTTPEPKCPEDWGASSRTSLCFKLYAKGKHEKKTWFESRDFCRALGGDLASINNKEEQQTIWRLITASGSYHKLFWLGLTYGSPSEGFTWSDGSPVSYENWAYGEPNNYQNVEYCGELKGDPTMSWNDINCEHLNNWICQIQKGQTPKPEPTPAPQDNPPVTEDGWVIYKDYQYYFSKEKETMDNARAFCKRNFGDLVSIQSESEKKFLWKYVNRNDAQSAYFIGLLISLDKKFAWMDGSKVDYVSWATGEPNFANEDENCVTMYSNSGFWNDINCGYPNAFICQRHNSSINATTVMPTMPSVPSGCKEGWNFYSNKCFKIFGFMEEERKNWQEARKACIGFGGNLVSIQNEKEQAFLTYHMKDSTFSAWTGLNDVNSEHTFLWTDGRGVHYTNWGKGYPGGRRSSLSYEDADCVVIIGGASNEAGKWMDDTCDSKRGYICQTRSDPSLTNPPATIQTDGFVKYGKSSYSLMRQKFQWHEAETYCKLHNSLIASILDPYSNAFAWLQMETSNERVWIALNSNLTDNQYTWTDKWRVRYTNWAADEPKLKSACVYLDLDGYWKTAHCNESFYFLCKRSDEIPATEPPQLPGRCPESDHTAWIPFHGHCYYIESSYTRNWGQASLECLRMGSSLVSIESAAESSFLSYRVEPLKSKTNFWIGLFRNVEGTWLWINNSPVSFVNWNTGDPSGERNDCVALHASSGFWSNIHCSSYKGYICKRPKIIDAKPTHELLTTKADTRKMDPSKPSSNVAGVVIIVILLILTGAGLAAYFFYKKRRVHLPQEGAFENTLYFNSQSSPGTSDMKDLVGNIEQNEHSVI

[1] = test system: mouse bone marrow-derived macrophages (BMDMs); test: Phagocytosis assay; format: cell-based; settings: 10 µM 4 h, washed, 48 h follow-up, relative to MACTIDE and untreated
CD206 = settings: recognition moiety for CD206; cited from earlier work
orthotopic 4T1.2 tumors = test: MACTIDE-V monotherapy in orthotopic 4T1.2; format: in vivo, mouse; settings: for CD8+ T cell density (mIHC): n=6 mice/group
[2] = test system: mouse bone marrow-derived macrophages (BMDMs); test: Flow cytometry of BMDM markers; format: cell-based; settings: Balb/C BMDMs, 48 h after treatment, not statistically significant
orthotopic 4T1 tumors = test: In vivo photodynamic therapy / treatment in orthotopic 4T1; parameters: species or system mouse; settings: 30 nmoles i.p., no irradiation, compared with irradiated MACTIDE-V
[3] = tumor cell suspensions, n=4 per group

## CC[C@H](C)[C@@H]1NC(=O)[C@@H]2CCCN2C(=O)[C@@H]2CCCN2C(=O)[C@H]([C@@H](C)CC)NC(=O)[C@H](CO)NC(=O)[C@H](CCCCN)NC(=O)[C@H]([C@@H](C)O)NC(=O)[C@@H](NC(=O)CN)CSSC[C@@H](C(=O)N[C@@H](CO)C(=O)N2CCC[C@H]2C(=O)NCC(=O)N[C@@H](C)C(=O)N[C@@H](CCCCN)C(=O)O)NC1=O [MACTIDE] (H-GCTKSIPPICSPGAK-OH; disulfide 2-10)
Human recombinant CD206
  dissociation upon washing with PBS: incompletely and slowly dissociated
[1]
  phagocytosis of fluorescent E. coli particles: no effects

## OC[C@H]1OC(O)[C@@H](O)[C@@H](O)[C@@H]1O (stereo partly drawn) [mannose]
CD206
  affinity of mannose: low millimolar range

## Vert-Ahx-G(CTKSIPPIC)SPGAK-OH (disulfide) [MACTIDE-V]
Orthotopic 4T1.2 tumors
  CD8+ T cell density (mIHC): trend of increased CD8^+ T cell density
Orthotopic 4T1.2 tumors; [3]
  percentage of CD206+ cells in tumor (flow cytometry): did not reduce
  polymorphonuclear (PMN) or TAM/monocyte cell populations (flow cytometry): no effects
[2]
  viability and differentiation of BMDMs: slightly affected
Orthotopic 4T1 tumors
  body weight, non-irradiated (-): less effect on body weight

## Vert-Ahx-AKPCGS-OH [CtrlPep-V, reference compound]
Orthotopic 4T1.2 tumors
  CD8+ T cell density (mIHC): trend of increased CD8^+ T cell density
